# “Also recorded” adds a separate entry of the source. Like-named read-outs stand apart in the source and are kept apart here.
# Key:
# [1] = test system: prekallikrein activating factor (PK activation); test: Inhibition profile of PK activation (prekallikrein activation assay, kallikrein substrate S-2302, O.D. 405 nm); format: biochemical, human
# Source text: In embodiments of the invention the reaction time may be fixed or “set.” The reaction time can be “set” by stopping the production of kallikrein, for example, by adding a prekallikrein activation inhibitor to the system of the present invention after a desired reaction time. Also, by adding a coloring or fluorescent synthetic substrate to the reaction system from the start or beginning, the produced amount of kallikrein (coloring or fluorescent intensity) may be observed at different lapses of time. […] When the reaction is stopped, the produced kallikrein can be quantitatively determined using an enzymatic activity of kallikrein as a target, for example, by applying a substrate to kallikrein.
# When the reaction is stopped, the produced plasma kallikrein can be determined using an enzymatic activity of the plasma kallikrein as a target by utilizing a substrate to the plasma kallikrein.
# (§1) Assays were performed in HEPES buffered saline (HBS) (10 mM Hepes, 137 mM NaCl, 4 mM KCl, 11 mM D-glucose, and 0.5 mg/ml RIA grade bovine serum albumin, pH 7.4), with a kallikrein specific substrate (0.6 mM S-2302). For assays using the cell-free system, 96 well disposable polystyrene microtiter plates (Dynatech Laboratories, Chantilly, Va.) were used. These microtiter plates were pretreated with 1% polyethylene glycol (Aquacide III, Calbiochem, Calif.) in HBS for two hours to prevent adsorption of proteins to polystyrene. The absorbance (O.D. at 405 nm or optical density at 405 nm) was monitored at room temperature on a Molecular Devices (Sunnyvale, Calif.) THERMOmax microplate reader. Just prior to the assay all the proteins were treated with 2.0 mM (4-amidinophenyl)methanesulfonyl fluoride (APMSF) for 15 minutes at pH 5.5, after which they were diluted 1:100 with HBS and incubated for 45 minutes to allow for the decomposition of any unreacted APMSF at the neutral pH. The proteins were treated with APMSF before use and were inactivated for the sake of safety.
# [2] = test system: HSP 90-dependent prekallikrein activation; test: HSP 90-dependent prekallikrein activation (HSP 90, HK, zinc, PK, S-2302); format: biochemical, human; conditions: purified HSP 90 activator, HK and zinc present
# Experimental: as §1
# HSP 90 was confirmed as a prekallikrein activator, which was functionally indistinguishable from the cytosolic extract (FIG. 2). A HUVEC activator system was functionally effective as well (FIG. 1). […] The incubation mixture used is as follows: […]
# [3] = test system: activation of prekallikrein in the presence of phosphate and zinc ions; test: Prekallikrein activation by phosphate ion (PBS, zinc, HK, PK, S-2302); format: biochemical; conditions: phosphate ion activator, no FXIIa, HUVEC or HSP 90
# Experimental: as §1, with “safety. […]” for “safety.”
molecule,measurement,setting,value
C[C@H](CS)C(=O)N1CCC[C@H]1C(=O)O [Captopril],inhibition of the prekallikrein activator in this system (in words),[1],good inhibitors
same,% inhibition of PK activation,[1]; inhibitor concentration 10 mM,97.9%
N[C@@H](CS)C(=O)O [Cysteine],% inhibition of PK activation,[1]; inhibitor concentration 10 mM,59.6%
O[C@@H](CS)[C@@H](O)CS [DTT],% inhibition of PK activation,[1]; inhibitor concentration 10 mM,69.1%
O=C(O)CN(CCN(CC(=O)O)CC(=O)O)CC(=O)O [EDTA],% inhibition of PK activation,[1],85.4%
same,inhibition of the prekallikrein activator in this system (in words),[1],good inhibitors
N[C@@H](CCC(=O)N[C@@H](CS)C(=O)NCC(=O)O)C(=O)O [Glutathione],% inhibition of PK activation,[1]; inhibitor concentration 100 μM,18.6%
[Cl][Hg][Cl] [HgCl2],inhibition of the prekallikrein activator in this system (in words),[1],good inhibitors
same,% inhibition of PK activation,[1]; inhibitor concentration 1 mM,98%
CC(C)Cc1ccc(C(C)C(=O)O)cc1 (stereo not shown) [Ibuprofen],inhibition of HSP 90-dependent prekallikrein activation (in words),[2],inhibited by Ibuprofen dose-dependently
same,inhibition of prekallikrein activation in the presence of phosphate and zinc ions (in words),[3],inhibited by Ibuprofen dose-dependently
NC(=O)CI [Iodoacetamide],% inhibition of PK activation,[1]; inhibitor concentration 10 mM,7%
OCCS [Mercaptoethanol],inhibition of the prekallikrein activator in this system (in words),[1],good inhibitors
same,% inhibition of PK activation,[1]; inhibitor concentration 5%,85.5%
Aprotinin,inhibition of the prekallikrein activator in this system (in words),[1],good inhibitors
same,% inhibition of PK activation,[1]; inhibitor concentration 100 μM,96.4%
Corn Trypsin Inhibitor,% inhibition of PK activation,[1]; inhibitor concentration 10 μM,94.3%
same,inhibition of the prekallikrein activator in this system (in words),[1]; listed as CTI,good inhibitors; also recorded: could be inhibited by CTI
same,inhibition of HSP 90-dependent prekallikrein activation (in words),[2],inhibited by CTI
Cystatin,% inhibition of PK activation,[1]; inhibitor concentration 10 μg/ml,4.5%
"SBTI: soybean trypsin inhibitor (SBTI) (protein, UniProt P01070 25-205, looked up) Trypsin inhibitor A: DFVLDNEGNPLENGGTYYILSDITAFGGIRAAPTGNERCPLTVVQSRNELDKGIGTIISSPYRIRFIAEGHPLSLKFDSFAVIMLCVGIPTEWSVVEDLPEGPAVKIGENKDAMDGWFRLERVSDDEFNNYKLVFCPQQAEDDKCGDIGISIDHDDGTRRLVVSKNKPLVVQFQKLDKESL",inhibition of the prekallikrein activator in this system (in words),[1],good inhibitors
same,% inhibition of PK activation,[1]; inhibitor concentration 50 μg/ml,98.6%
